Experimental data as given in patent publication US20240109891A1, “NOVEL SUBSTITUTED TRICYCLIC AZA-HETEROCYCLES AS SOS1 INHIBITORS” (Viva Star Biosciences (Suzhou) Co., Ltd., priority 2021, published 2024).

What was measured:
[1] = target: T1, KRAS-WT and SOS1 proteins (Homo sapiens, UniProt Q07889); assay: KRAS-WT/SOS1 binding assay (HTRF); settings: Tag1-SOS1 / Tag2-KRAS-WT, 10 μM GTP, read-out: Activity Data in Kras: SOS1 Assay, Wild Type
T1 construct: purchased Cisbio 63ADK000CB15PEG
T1 sequence (Q07889 1-1333): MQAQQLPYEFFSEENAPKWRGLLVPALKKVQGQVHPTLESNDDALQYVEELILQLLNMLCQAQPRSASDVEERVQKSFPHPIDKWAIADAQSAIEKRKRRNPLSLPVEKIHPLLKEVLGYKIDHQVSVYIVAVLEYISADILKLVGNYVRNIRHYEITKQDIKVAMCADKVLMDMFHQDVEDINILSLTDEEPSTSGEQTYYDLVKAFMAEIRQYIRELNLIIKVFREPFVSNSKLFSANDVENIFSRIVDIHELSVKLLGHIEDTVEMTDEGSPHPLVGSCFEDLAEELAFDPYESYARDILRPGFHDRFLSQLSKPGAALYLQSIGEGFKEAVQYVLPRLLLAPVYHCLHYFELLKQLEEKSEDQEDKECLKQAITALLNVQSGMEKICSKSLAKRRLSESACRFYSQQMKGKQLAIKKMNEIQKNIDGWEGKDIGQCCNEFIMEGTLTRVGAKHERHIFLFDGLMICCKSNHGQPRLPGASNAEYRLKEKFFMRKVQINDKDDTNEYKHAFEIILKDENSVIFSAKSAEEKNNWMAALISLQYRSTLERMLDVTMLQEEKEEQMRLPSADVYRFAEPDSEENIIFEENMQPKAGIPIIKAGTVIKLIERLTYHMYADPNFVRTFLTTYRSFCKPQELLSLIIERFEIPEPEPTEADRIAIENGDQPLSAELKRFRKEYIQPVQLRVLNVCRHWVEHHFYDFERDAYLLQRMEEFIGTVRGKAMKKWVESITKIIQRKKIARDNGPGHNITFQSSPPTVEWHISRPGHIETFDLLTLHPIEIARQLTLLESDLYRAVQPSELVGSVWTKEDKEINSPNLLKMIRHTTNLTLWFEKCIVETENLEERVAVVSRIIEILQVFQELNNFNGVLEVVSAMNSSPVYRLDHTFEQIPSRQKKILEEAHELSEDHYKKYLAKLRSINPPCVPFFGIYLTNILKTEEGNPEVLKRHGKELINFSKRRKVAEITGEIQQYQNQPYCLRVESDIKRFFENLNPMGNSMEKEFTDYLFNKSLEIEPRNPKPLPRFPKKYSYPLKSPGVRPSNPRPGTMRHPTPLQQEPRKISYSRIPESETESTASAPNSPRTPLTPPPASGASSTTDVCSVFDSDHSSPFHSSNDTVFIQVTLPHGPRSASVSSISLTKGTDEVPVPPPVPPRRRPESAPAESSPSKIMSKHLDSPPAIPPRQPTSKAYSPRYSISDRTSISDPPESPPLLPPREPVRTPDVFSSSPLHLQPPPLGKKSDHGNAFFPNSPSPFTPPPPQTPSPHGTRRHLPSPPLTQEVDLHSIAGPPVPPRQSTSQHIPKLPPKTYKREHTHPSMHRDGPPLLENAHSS
Protocol: (§1) KRAS-WT (or G12C/G12D/G12V)/SOS1 Binding Assay
(§2) Low IC50 values are indicative of high potency of the SOS1 inhibitor compounds in this assay setting.
(§3) The KRAS-WT (or G12C/G12D/G12V)/SOS1 binding assay is performed using an assay kit (Cisbio, Cat #63ADK000CB15PEG or 63ADK000CB16PEG/63ADK000CB17PEG/63ADK000CB18PEG) according to the procedure recommended by the manufacturer. • 1) Thaw and prepare the working solution of Tag1-SOS1 protein and Tag2-KRAS-WT (or G12C/G12D/G12V) protein with final concentration of 10 μM GTP (Sigma, Cat #V900868). • 2) Thaw and prepare the working solution of anti-Tag1-Tb^3+ anti-Tag2-XL665. • 3) Dispense 2 μL of serially diluted compound, 4 μL of Tag1-SOS1 protein and 4 μL of Tag2-KRAS-WT (or G12C/G12D/G12V) protein with GTP into a ProxiPlate-384 Plus, white 384-shallow well microplate (PerkinElmer, Cat #6008280). • 4) Incubate the plate for 15 minutes at room temperature. • 5) Dispense 10 μL of pre-mixed anti-Tag1-Tb^3+ and anti-Tag2-XL665 into the plate. • 6) Seal the plate and incubate for 2 hours at room temperature. • 7) Remove the plate sealer and read on PHERAstar FS (BMG LABTECH, PHERAstar FS). • 8) Calculate the ratio of the acceptor and donor emission signals for each individual well using the following equation.
(§4) [formula] • 9) IC50 values are fitted and calculated by HTRF signal values and log of compound concentrations to nonlinear regression [Log (inhibitor) vs. Response−Variable Slope (four parameters)] using the GraphPad Prism 8.0.

[2] = target: T2, KRAS G12D and SOS1 proteins (Homo sapiens, UniProt Q07889); assay: KRAS-G12D/SOS1 binding assay (HTRF); settings: Tag1-SOS1 / Tag2-KRAS G12D, 10 μM GTP
T2 construct: purchased Cisbio 63ADK000CB17PEG
T2 sequence (Q07889 1-1333): T1 sequence (Q07889 1-1333)
Protocol: as §1, §2, §3, §4

Cc1nc(N[C@H](C)c2cccc3c2CCC3(F)F)c2cc(N3CCOCC3)c3nncn3c2n1 [Example 23, N-[(1R)-1-(1,1-difluoro-2,3-dihydro-1H-inden-4-yl)ethyl]-12-methyl-7-(morpholin-4-yl)-2,4,5,11,13-pentaazatricyclo[7.4.0.0^{2,6}]trideca-1(9),3,5,7,10,12-hexaen-10-amine]
IC50 [1]: < 100 nM
IC50 [2]: < 100 nM

Cc1nc(N[C@H](C)c2cccc(C(F)(F)CO)c2)c2cc(OC3CC(F)(F)C3)c3c(cnn3C)c2n1 [Example 39, (R)-2-(3-(1-((6-(3,3-difluorocyclobutoxy)-2,7-dimethyl-7H-pyrazolo[3,4-h]quinazolin-4-yl)amino)ethyl)phenyl)-2,2-difluoroethan-1-ol]
IC50 [1]: 100 to 500 nM
IC50 [2]: 100 to 500 nM

COc1cc2c(cc1C1CCN(C(C)=O)CC1)c(N[C@H](C)c1cccc3c1CCC3(F)F)nc1ccnn12 [Example 52, (R)-1-(4-(5-((1-(1,1-difluoro-2,3-dihydro-1H-inden-4-yl)ethyl)amino)-8-methoxypyrazolo[1,5-a]quinazolin-7-yl)piperidin-1-yl)ethanone]
IC50 [1]: 100 to 500 nM
IC50 [2]: 100 to 500 nM

Cc1nc(N[C@H](C)c2cccc(C(F)(F)F)c2)c2cc(OC3CCOC3)c3c(cnn3C)c2n1 (stereo partly drawn) [Example 35, 2,7-dimethyl-6-(oxolan-3-yloxy)-N-[(1R)-1-[3-(trifluoromethyl)phenyl]ethyl]-7H-pyrazolo[3,4-h]quinazolin-4-amine]
IC50 [1]: 100 to 500 nM
IC50 [2]: 100 to 500 nM

Cc1nc(N[C@H](C)c2cccc(C(F)(F)CO)c2)c2cc(-c3ccc(=O)[nH]c3)c3c(cnn3C)c2n1 [Example 29, (R)-5-(4-((1-(3-(1,1-difluoro-2-hydroxyethyl)phenyl)ethyl)amino)-2,7-dimethyl-7H-pyrazolo[3,4-h]quinazolin-6-yl)pyridin-2(1H)-one]
IC50 [1]: < 100 nM
IC50 [2]: < 100 nM

COCC(F)(F)c1cccc([C@@H](C)Nc2nc(C)nc3c2cc(-c2ccc(=O)n(C)c2)c2c3cnn2C)c1 [Example 31, (R)-5-(4-((1-(3-(1,1-difluoro-2-methoxyethyl)phenyl)ethyl)amino)-2,7-dimethyl-7H-pyrazolo[3,4-h]quinazolin-6-yl)-1-methylpyridin-2(1H)-one]
IC50 [1]: < 100 nM
IC50 [2]: < 100 nM

C[C@@H](Nc1nc(C(F)(F)F)nc2c1cc(-c1ccc(=O)n(C)c1)c1c2cnn1C)c1cc(F)cc(C(F)(F)CO)c1 [Example 33, (R)-5-(4-((1-(3-(1,1-difluoro-2-hydroxyethyl)-5-fluorophenyl)ethyl)amino)-7-methyl-2-(trifluoromethyl)-7H-pyrazolo[3,4-h]quinazolin-6-yl)-1-methylpyridin-2(1H)-one]
IC50 [1]: 100 to 500 nM
IC50 [2]: 100 to 500 nM

C[C@@H](Nc1nc2ccnn2c2cc(=O)n(C3CC(F)(F)C3)cc12)c1cc(F)cc(C(F)(F)CO)c1 [Example 73, (R)-5-((1-(3-(1,1-difluoro-2-hydroxyethyl)-5-fluorophenyl)ethyl)amino)-7-(3,3-difluorocyclobutyl)pyrazolo[1,5-a]pyrido[3,4-e]pyrimidin-8(7H)-one]
IC50 [1]: < 100 nM
IC50 [2]: < 100 nM

COc1cc2c(cc1O[C@H]1CCOC1)c(N[C@H](C)c1cccc(C(F)(F)F)c1)nc1ccnn12 [Example 54, 8-methoxy-7-[(3 S)-oxolan-3-yloxy]-N-[(1R)-1-[3-(trifluoromethyl)phenyl]ethyl]pyrazolo[1,5-α]quinazolin-5-amine]
IC50 [1]: 500 to 5000 nM
IC50 [2]: 500 to 5000 nM

COc1cc2c(cc1C1CCN(S(C)(=O)=O)CC1)c(N[C@H](C)c1cccc3c1CCC3(F)F)nc1ccnn12 [Example 53, (R)-N-(1-(1,1-difluoro-2,3-dihydro-1H-inden-4-yl)ethyl)-8-methoxy-7-(1-(methylsulfonyl)piperidin-4-yl)pyrazolo[1,5-a]quinazolin-5-amine]
IC50 [1]: 100 to 500 nM
IC50 [2]: 100 to 500 nM

Cc1nc(N[C@H](C)c2cc(N)cc(C(F)(F)F)c2)c2cc(O[C@H]3CCOC3)c3nncn3c2n1 [Example 18, N-[(1R)-1-[3-amino-5-(trifluoromethyl)phenyl]ethyl]-12-methyl-7-(oxolan-3-yloxy)-2,4,5,11,13-pentaazatricyclo[7.4.0.0^{2,6}]trideca-1(9),3,5,7,10,12-hexaen-10-amine]
IC50 [1]: < 100 nM
IC50 [2]: < 100 nM

Cc1nc(N[C@H](C)c2cccc3c2CCC3(F)F)c2cc(C3CCN(S(C)(=O)=O)CC3)c3nncn3c2n1 [Example 8, (R)-N-(1-(1,1-difluoro-2,3-dihydro-1H-inden-4-yl)ethyl)-2-methyl-6-(1-(methylsulfonyl)piperidin-4-yl)-[1,2,4]triazolo[4′,3′:1,6]pyrido[2,3-d]pyrimidin-4-amine]
IC50 [1]: < 100 nM
IC50 [2]: < 100 nM

Cc1nc(N[C@H](C)c2cccc(C(F)(F)CO)c2)c2cc(-c3ccc(=O)[nH]c3)c3[nH]ncc3c2n1 [Example 28, (R)-5-(4-((1-(3-(1,1-difluoro-2-hydroxyethyl)phenyl)ethyl)amino)-2-methyl-7H-pyrazolo[3,4-h]quinazolin-6-yl)pyridin-2(1H)-one]
IC50 [1]: < 100 nM
IC50 [2]: < 100 nM

Cc1nc(N[C@H](C)c2cccc(C(F)(F)CO)c2)c2cc(-c3ccc(=O)n(C)c3)c3c(cnn3C)c2n1 [Example 24, (R)-5-(4-((1-(3-(1,1-difluoro-2-hydroxyethyl)phenyl)ethyl)amino)-2,7-dimethyl-7H-pyrazolo[3,4-h]quinazolin-6-yl)-1-methylpyridin-2(1H)-one]
IC50 [1]: < 100 nM
IC50 [2]: < 100 nM

COc1cc2c(cc1O[C@H]1CCOC1)c(N[C@H](C)c1cc(N)cc(C(F)(F)F)c1)nc1cncn12 [Example 57, N—((R)-1-(3-amino-5-(trifluoromethyl)phenyl)ethyl)-8-methoxy-7-(((S)-tetrahydrofuran-3-yl)oxy)imidazo[1,5-a]quinazolin-5-amine]
IC50 [1]: 100 to 500 nM
IC50 [2]: 100 to 500 nM

C[C@@H](Nc1nc2ccnn2c2cc(=O)n(C3CC(F)(F)C3)cc12)c1cccc(C(F)(F)CO)c1 [Example 66, (R)-5-((1-(3-(1,1-difluoro-2-hydroxyethyl)phenyl)ethyl)amino)-7-(3,3-difluorocyclobutyl)pyrazolo[1,5-a]pyrido[3,4-e]pyrimidin-8(7H)-one]
IC50 [1]: < 100 nM
IC50 [2]: < 100 nM

Cc1nc(N[C@H](C)c2cccc(C(F)(F)CO)c2)c2cc(N3CC[C@H](O)C3)c3c(cnn3C)c2n1 [Example 43, (3S)-1-(4-{[(1R)-1-[3-(1,1-difluoro-2-hydroxyethyl)phenyl]ethyl]amino}-2,7-dimethyl-7H-pyrazolo[3,4-h]quinazolin-6-yl)pyrrolidin-3-ol]
IC50 [1]: < 100 nM
IC50 [2]: < 100 nM
